Like-named read-outs stand apart in the source and are kept apart here.
Tests used:
SK-MEL-2 = assay: NCI cancer cell line panel screening (SRB), melanoma cell line SK-MEL-2; assay type: cell-based, human; details: read-out: IC50 against melanoma cell line in vitro
Procedure: (§1) According to the standard protocol (http://dtp.nci.nih.gov/dtpstandard/dwindex/index.isp) of the US National Cancer Institute (NCI) (www.dtp.nci.nih.gov), screening of a cancer cell line panel was performed. […] For a general screening experiment, cells were inoculated in 96-well microtiter plates in 100 μl at a plating density ranging from 5000 cells/well to 40,000 cells/well depending on the doubling time of individual cell lines. After cell inoculation, the microtiter plates were incubated at 37° C., 5% CO2, 95% air, and 100% relative humidity for 24 hours prior to addition of test compounds. 24 hours later, two plates of each cell line were fixed in situ with trichloroacetic acid (TCA) to measure the cell population for each cell line at the time of test compound addition (Tz). Test compounds were solubilized in dimethyl sulfoxide at 400-fold the intended final maximum test concentration, and stored frozen prior to use. At the time of compound addition, an aliquot of frozen concentrate was thawed and diluted to twice the intended final maximum test concentration with a complete medium containing 50 μg/ml of gentamicin. Additional four concentration of 10-fold or ½ log serial dilutions were made to provide a total of five compound concentrations plus control. Aliquots of 100 μl of these different compound dilutions were added to appropriate microtiter wells already containing 100 μl of medium, resulting in the required final compound concentrations.
(§2) Following compound addition, the plates were incubated for additional 48 hours at 37° C., 5% CO2, 95% air, and 100% relative humidity. For adherent cells, the assay was terminated by the addition of cold TCA. Cells were fixed in situ by the gentle addition of 50 μl of cold 50% (w/v) TCA (final concentration, 10% TAC) and incubated at 4° C. for 60 minutes. The supernatant was discarded, and the plates were washed five times with tap water and air-dried. A sulforhodamine B (SRB) solution (100 μl) at 0.4% (w/v) in 1% acetic acid was added to each well, and plates were incubated at room temperature for 10 minutes. After staining, unbound dye was removed by washing five times with 1% acetic acid and the plates were air-dried. […] For suspension cells, the methodology was the same except that the assay was terminated by fixing settled cells at the bottom of the wells by gently adding 50 μl of 80% TCA (final concentration, 16% TCA). Using the seven absorbance measurements [time zero (Tz), control growth (C), and test growth rate in the presence of compound at the five concentration levels (Ti)], the growth percentage was calculated at each of the compound concentration levels. Growth inhibition percentage was calculated as follows: [(Ti−Tz)/(C−Tz)]×100 for concentrations for which Ti>/=Tz [(Ti−Tz)/Tz]×100 for concentrations for which Ti<Tz.

UACC-62 = assay: NCI cancer cell line panel screening (SRB), melanoma cell line UACC-62; assay type: cell-based; details: Homo sapiens, read-out: IC50 against melanoma cell line in vitro
Procedure: (§3) According to the standard protocol (http://dtp.nci.nih.gov/dtpstandard/dwindex/index.isp) of the US National Cancer Institute (NCI) (www.dtp.nci.nih.gov), screening of a cancer cell line panel was performed. Briefly, human cell lines were allowed to grow in an RPMI 1640 medium containing 5% FBS and 2 mM L-glutamine. For a general screening experiment, cells were inoculated in 96-well microtiter plates in 100 μl at a plating density ranging from 5000 cells/well to 40,000 cells/well depending on the doubling time of individual cell lines. After cell inoculation, the microtiter plates were incubated at 37° C., 5% CO2, 95% air, and 100% relative humidity for 24 hours prior to addition of test compounds. 24 hours later, two plates of each cell line were fixed in situ with trichloroacetic acid (TCA) to measure the cell population for each cell line at the time of test compound addition (Tz). Test compounds were solubilized in dimethyl sulfoxide at 400-fold the intended final maximum test concentration, and stored frozen prior to use. At the time of compound addition, an aliquot of frozen concentrate was thawed and diluted to twice the intended final maximum test concentration with a complete medium containing 50 μg/ml of gentamicin. Additional four concentration of 10-fold or ½ log serial dilutions were made to provide a total of five compound concentrations plus control. Aliquots of 100 μl of these different compound dilutions were added to appropriate microtiter wells already containing 100 μl of medium, resulting in the required final compound concentrations.
(§4) Following compound addition, the plates were incubated for additional 48 hours at 37° C., 5% CO2, 95% air, and 100% relative humidity. For adherent cells, the assay was terminated by the addition of cold TCA. Cells were fixed in situ by the gentle addition of 50 μl of cold 50% (w/v) TCA (final concentration, 10% TAC) and incubated at 4° C. for 60 minutes. The supernatant was discarded, and the plates were washed five times with tap water and air-dried. A sulforhodamine B (SRB) solution (100 μl) at 0.4% (w/v) in 1% acetic acid was added to each well, and plates were incubated at room temperature for 10 minutes. After staining, unbound dye was removed by washing five times with 1% acetic acid and the plates were air-dried. Bound stain was subsequently solubilized with 10 mM Trizma base, and the absorbance was read on an automated plate reader at a wavelength of 515 nm. For suspension cells, the methodology was the same except that the assay was terminated by fixing settled cells at the bottom of the wells by gently adding 50 μl of 80% TCA (final concentration, 16% TCA). Using the seven absorbance measurements [time zero (Tz), control growth (C), and test growth rate in the presence of compound at the five concentration levels (Ti)], the growth percentage was calculated at each of the compound concentration levels. Growth inhibition percentage was calculated as follows: [(Ti−Tz)/(C−Tz)]×100 for concentrations for which Ti>/=Tz [(Ti−Tz)/Tz]×100 for concentrations for which Ti<Tz.

A375 = assay: NCI cancer cell line panel screening (SRB), melanoma cell line A375; assay type: cell-based; details: Homo sapiens, A-375, read-out: IC50 against melanoma cell line in vitro
Procedure: as §3, §4

LOX IMVI = assay: NCI cancer cell line panel screening (SRB), melanoma cell line LOX IMVI; assay type: cell-based, human; details: read-out: IC50 against melanoma cell line in vitro
Procedure: as §1, §2

M14 = assay: NCI cancer cell line panel screening (SRB), melanoma cell line M14; assay type: cell-based; details: Homo sapiens, read-out: IC50 against melanoma cell line in vitro
Procedure: as §3, §4

SK-MEL-5 = assay: NCI cancer cell line panel screening (SRB), melanoma cell line SK-MEL-5; assay type: cell-based, human; details: read-out: IC50 against melanoma cell line in vitro
Procedure: as §1, §2

SK-MEL-28 = assay: NCI cancer cell line panel screening (SRB), melanoma cell line SK-MEL-28; assay type: cell-based, human; details: read-out: IC50 against melanoma cell line in vitro
Procedure: as §1, §2

MDA-MB-435 = assay: NCI cancer cell line panel screening (SRB), melanoma cell line MDA-MB-435; assay type: cell-based; details: Homo sapiens, read-out: IC50 against melanoma cell line in vitro
Procedure: as §3, §4

V600E-B-RAF = V600E-B-RAF (Homo sapiens (Human), UniProt P15056, V600E); assay: Protein kinase enzymatic activity (Reaction Biology kinase hotspot, 33P-ATP); assay type: biochemical; details: read-out: Inhibitory effect against kinase activity, V600E-B-RAF (IC50)
V600E-B-RAF, sequence (P15056 whole entry V600E): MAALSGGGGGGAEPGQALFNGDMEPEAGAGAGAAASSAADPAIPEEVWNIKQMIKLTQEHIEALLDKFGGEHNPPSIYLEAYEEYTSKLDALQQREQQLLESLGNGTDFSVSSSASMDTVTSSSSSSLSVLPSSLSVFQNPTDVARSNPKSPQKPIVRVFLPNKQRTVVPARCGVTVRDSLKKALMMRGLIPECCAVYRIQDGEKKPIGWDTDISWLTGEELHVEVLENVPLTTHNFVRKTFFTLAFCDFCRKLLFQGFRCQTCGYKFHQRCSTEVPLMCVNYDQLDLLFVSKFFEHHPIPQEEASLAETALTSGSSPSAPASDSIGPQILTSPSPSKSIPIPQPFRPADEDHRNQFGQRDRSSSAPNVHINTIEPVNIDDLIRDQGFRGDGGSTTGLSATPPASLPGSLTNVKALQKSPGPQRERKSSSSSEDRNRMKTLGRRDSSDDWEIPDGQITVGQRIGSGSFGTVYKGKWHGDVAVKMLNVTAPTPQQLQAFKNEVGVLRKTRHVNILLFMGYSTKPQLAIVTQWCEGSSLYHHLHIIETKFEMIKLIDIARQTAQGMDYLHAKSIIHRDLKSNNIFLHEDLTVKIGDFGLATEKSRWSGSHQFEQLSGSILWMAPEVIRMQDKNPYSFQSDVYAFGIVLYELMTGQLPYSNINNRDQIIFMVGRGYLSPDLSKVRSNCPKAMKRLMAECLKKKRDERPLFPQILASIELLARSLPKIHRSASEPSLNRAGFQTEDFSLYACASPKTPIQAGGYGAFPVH
Procedure: (§5) Reaction biology kinase hotspot service (http://www.reactionbiology.com) was used to measure IC50. In a final reaction volume of 25 μL, kinase (5 mU to 10 mU) was incubated with 25 mM Tris (pH 7.5), 0.02 mM EGTA, 0.66 mg/ml of myelin basic protein, 10 mM magnesium acetate, and [^33P-ATP] (specific activity of about 500 CPM/pmol, concentration as required). The reaction was initiated by addition of Mg-ATP mix. After incubation for 40 min at room temperature, the reaction was stopped by addition of 5 μl of a 3% phosphoric acid solution. 10 μL of the reaction was then spotted onto a P30 filtermat and washed three times for 5 minutes in 75 mM phosphoric acid and once in methanol prior to drying and scintillation counting.

B-RAF = B-RAF (Homo sapiens (Human), UniProt P15056); assay: as above; assay type: biochemical; details: read-out: Inhibitory effect against kinase activity, B-RAF (IC50)
B-RAF, sequence (P15056 whole entry): as the sequence (P15056 whole entry V600E) above, with E600V counted along it
Procedure: as §5

A375P cell line = assay: Inhibitory activity against proliferation of A375P melanoma cell line (MTT assay); assay type: cell-based; details: Homo sapiens
Procedure: To examine whether the compounds (2II, 9II, 10II, and 12II to 15II) of the present disclosure have remarkable effects, as compared with imidazothiazole-based compounds previously disclosed by the present inventors (M. S. Abdel-Maksoud et al./European Journal of Medicinal Chemistry 95 (2015) 453-463), inhibitory activities thereof against proliferation of A375P cell line which is a melanoma cell line were compared by the following experiments.
A375P cell line purchased from ATCC was cultured in a DMEM medium [containing 10% FBS and 1% penicillin/streptomycin] under 5% CO2 at 37° C. The cultured A375P cell line was collected using 0.05% trypsin-0.02% EDTA, and inoculated at a cell density of 5×10^3 cells per well in a 96-well plate. To measure cell viability, MTT [3-(4,5-dimethylthiazol-2-yl)-2,5-diphenyltetrazolium bromide] assay (CellTiter 96 Assay, Promega) was performed as follows. MTT assay was performed in accordance with the guidelines of CellTiter 96® (Promega).

Row | IC50 (A375P cell line) [nM] | Compound | IC50 (UACC-62) [nM] | IC50 (A375) [nM] | IC50 (M14) [nM] | IC50 (SK-MEL-28; Homo sapiens) [nM] | IC50 (MDA-MB-435) [nM] | further results
1 | 1900 | O=S1(=O)NCCN1CCNc1nccc(-c2c(-c3ccc(F)cc3)nc3sccn23)n1 [reference compound] | – | – | – | – | – | –
2 | 600 | CN1CCN(CCNc2nccc(-c3c(-c4ccc(F)cc4)nc4sccn34)n2)S1(=O)=O [reference compound] | – | – | – | – | – | –
3 | > 10000 | O=S1(=O)N(CCNc2nccc(-c3c(-c4ccc(F)cc4)nc4sccn34)n2)CCN1Cc1ccccc1 [reference compound] | – | – | – | – | – | –
4 | > 10000 | CC(C)(C)OC(=O)N1CCN(CCNc2nccc(-c3c(-c4ccc(F)cc4)nc4sccn34)n2)S1(=O)=O [reference compound] | – | – | – | – | – | –

Continued, compound first:

Row | Compound | IC50 (A375P cell line) [nM] | IC50 (UACC-62) [nM] | IC50 (A375) [nM] | IC50 (M14) [nM] | IC50 (SK-MEL-28; Homo sapiens) [nM] | IC50 (MDA-MB-435) [nM] | further results
5 | CN1CCCN(CCNc2nccc(-c3c(-c4cccc(O)c4)nc4occn34)n2)S1(=O)=O [6II, 2-(2-((4-(6-(3-Hydroxylphenyl)imidazo[2,1-b]oxazol-5-yl)pyrimidin-2-yl)amino)ethyl)-6-methyl-1,2,6-thiadiazinane 1,1-dioxide] | – | 58 | 470 | 160 | 240 | 490 | IC50 (SK-MEL-2; Homo sapiens): 2280 nM; IC50 (LOX IMVI; Homo sapiens): 4360 nM; IC50 (SK-MEL-5; Homo sapiens): 240 nM
6 | O=S1(=O)NCCCN1CCNc1nccc(-c2c(-c3cccc(O)c3)nc3occn23)n1 [8II, 2-(2-((4-(6-(3-Hydroxylphenyl)imidazo[2,1-b]oxazol-5-yl)pyrimidin-2-yl)amino)ethyl)-1,2,6-thiadiazinane 1,1-dioxide] | – | 59 | 58 | 300 | 170 | 380 | IC50 (SK-MEL-2; Homo sapiens): 380 nM; IC50 (LOX IMVI; Homo sapiens): 2150 nM; IC50 (SK-MEL-5; Homo sapiens): 170 nM
7 | COc1cccc(-c2nc3sccn3c2-c2ccnc(NCCNS(=O)(=O)c3ccc(C(F)(F)F)cc3)n2)c1 [8III, N-(2-((4-(6-(3-methoxyphenyl)imidazo[2,1-b]thiazol-5-yl)pyrimidin-2-yl)amino)ethyl)-4-(trifluoromethyl)benzenesulfonamide] | – | 480 | – | – | – | – | IC50 (SK-MEL-2): 3040 nM; IC50 (LOX IMVI): 3260 nM; IC50 (SK-MEL-5): 1240 nM; IC50 (SK-MEL-28): 3680 nM; IC50 (V600E-B-RAF): 98 nM; IC50 (B-RAF): 687 nM
8 | O=S(=O)(NCCNc1nccc(-c2c(-c3cccc(O)c3)nc3sccn23)n1)c1ccc(F)cc1 [25III, 4-Fluoro-N-(2-((4-(6-(3-hydroxylphenyl)imidazo[2,1-b]thiazol-5-yl)pyrimidin-2-yl)amino)ethyl)benzenesulfonamide] | – | 260 | 480 | 560 | 660 | 930 | IC50 (SK-MEL-2): 4490 nM; IC50 (LOX IMVI): 4110 nM; IC50 (SK-MEL-5): 1610 nM; IC50 (V600E-B-RAF): 1 nM; IC50 (B-RAF): 5.7 nM
9 | CCN1CCN(CCNc2nccc(-c3c(-c4cccc(O)c4)nc4occn34)n2)S1(=O)=O [drawing 151] | 190 | – | – | – | – | – | –
10 | CCN1CCN(CCNc2nccc(-c3c(-c4ccc(F)cc4)nc4sccn34)n2)S1(=O)=O [reference compound] | 380 | – | – | – | – | – | –

Reference: patent publication US10570155B2, “Imidazooxazole derivative having antitumor effect, and pharmaceutical composition including same” (KOREA INSTITUTE OF SCIENCE AND TECHNOLOGY, priority 2016, dated 2020)
